Source: patent US9562059B2, “Anticancer maytansinoids with two fused macrocyclic rings” (priority 2013, dated 2017)
Entries after “also recorded” stand apart in the source; their conditions may differ. Where two headings read alike, the source gives them in different places.

Assays:
[1] = system: human prostate carcinoma LNCaP cell line; assay: Cell culture panel bioassay, LNCaP cell line; type: cell-based; settings: for IC50: read-out: IC50 LNCaP
Text: (§1) Human oral epidermoid carcinoma KB cell line, human promyelocytic leukemia HL-60 cell line, human prostate carcinoma LNCaP cell line, human breast carcinoma MCF-7 cell line, human colon carcinoma Col2 cell line, and human lung carcinoma Lu1 cell line are activated from the frozen cells that are stored in Department of Medicinal Chemistry and Pharmacognosy, University of Illinois at Chicago, Chicago, Ill. Col2 cells are maintained in MEME medium. KB cells are maintained in DMEM medium. LNCaP cells are maintained in RPMI1640 medium with hormone-free 10% […] FBS (fetal bovine serum) supplemented with 0.1 nM testosterone, Lu1 cells are cultured in MEME medium. MCF-7 cells are maintained in MEME medium containing 10 mg/L of insulin. In each case, PSF (100 units/mL penicillin G, 100 μg/mL streptomycin sulfate, 250 ng/mL amphotericin B) is added. All media are supplemented with 10% heat-inactivated FBS.
(§2) Extracts, fractions, and compounds are tested in a human oral epidermoid carcinoma (KB) cell line using established protocols. In addition, all pure compounds are evaluated against the other human cancer cell lines comprising our cytotoxicity screening panel. Cytotoxicity assays involving colon (Col-2), prostate (LNCaP), and lung (Lu1) carcinoma cell lines are performed using sulforhodamine B according to established protocols.

[2] = system: human breast carcinoma MCF-7 cell line; assay: Cell culture panel bioassay, MCF-7 cell line; type: cell-based
Text: as §1, §2

[3] = system: human oral epidermoid carcinoma KB cell line; assay: Cell culture panel bioassay, KB cell line; type: cell-based; settings: read-out: IC50 KB
Text: as §1, §2

[4] = system: human colon carcinoma Col2 cell line; assay: Cell culture panel bioassay, Col2 cell line; type: cell-based
Text: as §1, §2

[5] = system: human lung carcinoma Lu1 cell line; assay: Cell culture panel bioassay, Lu1 cell line; type: cell-based
Text: as §1, §2

HCT116 cancer cells = assay: HCT116 xenograft mouse model, tumor growth; type: in vivo, nude mice; settings: for average tumor size (L×W×W) suppressed in comparison with the control group: after 21 days
Method: (§3) HCT116 cancer cells (2×10^7 cells in 100 μL suspension) are subcutaneously implanted in the rear flank of each mouse. After 10 days, solid tumors appear at the implanted sites. […] Daily injections at i.v. sites were scheduled for 21 days.
(§4) FIGS. 1 to 3 show the inhibition of HCT116-tumor xenograft growth by loeseneriellin B. The treatment started on the 10th day when the tumor size reached approximately 100 mm^3 (L×W×W).

MCF7 cells = assay: In vivo hollow fiber test, MCF7 cells; parameters: species or system mice
Method: (§5) Hollow fiber tests are well known in the art for providing preliminary indications of therapeutic efficacy (Mi et al. (2002), J. Nat. Prod. 65: 842-850). In hollow fiber tests, human tumor cell lines currently employed in cell cultures are grown inside semipermeable hollow fibers to form heterogeneous solid tumor models. The hollow fibers containing the human tumor cells are implanted in the intraperitoneal or subcutaneous compartments of host mice, and the mice treated with the test compound of interest (Hollingshead et al, (1995), Life Sciences 57(2):131-141).
(§6) Loeseneriellin B isolated from Loeseneriella pauciflora (Celastraceae) is tested for in vivo hollow fiber study.

Col2 cells = assay: In vivo hollow fiber test, Col2 cells; parameters: species or system mice
Method: as §5, §6

Lu1 cells = assay: In vivo hollow fiber test, Lu1 cells; parameters: species or system mice
Method: as §5, §6

[6] = system: P388 lymphocytic leukemia; settings: Powell et al. (1982); cited from earlier work
KB cells = settings: Powell et al. (1982); cited from earlier work
[7] = HCT116 xenograft mouse model, body weight; type: in vivo, nude mice; settings: 20 and 40 μg/kg i.v. daily for 3 weeks (FIG. 3)
Method: as §3, §4

[8] = system: KB, Col-2, LNCaP, Lu-1, and MCF-7 cell lines; assay: In vitro anti-tumor activity against the tumor cell line panel; type: cell-based, human; settings: Lu-1, MCF-7
Method: The in vitro anti-tumor activity of isolated compounds (1-6) is evaluated against KB, Col-2, LNCaP, Lu-1, and MCF-7 cell lines. […] However, because of the much different stereochemistry, the bimacrocyclic maytansinoid may have a different anticancer therapeutic window from that of mono-macrocyclic maytansine derivatives.
as §1, with “In each case, PSF (100 units/mL penicillin G, 100 μg/mL streptomycin sulfate, 250 ng/mL amphotericin B) is added. All media are supplemented with 10% heat-inactivated FBS.” left out
Extracts, fractions, and compounds are tested in a human oral epidermoid carcinoma (KB) cell line using established protocols. In addition, all pure compounds are evaluated against the other human cancer cell lines comprising our cytotoxicity screening panel. […]

[9] = cited from earlier work
[10] = concentration required to inhibit cell growth by 50%, triplicate experiments
[11] = concentration required to inhibit cell growth by 50%, triplicate experiments, read-out: IC50 MCF-7
[12] = concentration required to inhibit cell growth by 50%, triplicate experiments, read-out: IC50 Col2
[13] = concentration required to inhibit cell growth by 50%, triplicate experiments, read-out: IC50 Lu1

Loeseneriellin A [Compound 2] gave an IC50 [1, 10] of 0.18 nM, an IC50 [2, 11] of 0.19 nM and an IC50 [3, 10] of 0.1 nM. The IC50 [4, 12] was 0.18 nM and the IC50 [5, 13] was 0.38 nM.

`COc1cc2cc(c1Cl)N(C)C(=O)C[C@H](OC(=O)C(C)N(C)C(=O)C(C)C)[C@]1(C)O[C@H]1[C@H](C)[C@@H]1C[C@@](O)(NC(=O)O1)[C@H](OC)/C=C/C=C(\C)C2` (some centres unmarked) [Compound 5, Maytanbutine] showed an IC50 [1, 10] of 0.054 nM, an IC50 [2, 11] of 0.13 nM and an IC50 [3, 10] of 0.05 nM. For the same compound, the IC50 [4, 12] was 0.061 nM and the IC50 [5, 13] was 0.13 nM.

For `CC(=O)O[C@H]1C(=O)[C@@]2(C)[C@H]([C@H](OC(=O)c3ccccc3)[C@]3(O)C[C@H](OC(=O)[C@H](O)[C@@H](NC(=O)c4ccccc4)c4ccccc4)C(C)=C1C3(C)C)[C@]1(OC(C)=O)CO[C@@H]1C[C@@H]2O` [Paclitaxel], the inhibition at 0.02 µg/mL ([1]; Homo sapiens, LNCaP, at 20 ng/mL, positive control, read-out: inhibition against LNCaP) was 89%, the “excised tumor weights, % inhibition versus control” value (HCT116 cancer cells; 5 mg/kg i.v. daily for 3 weeks (FIG. 2)) was 37.6% and the “Inhibition (%)” value (MCF7 cells; MCF7-IP, dose 2.0 mg/kg) was 71.3%. The “Inhibition (%)” value (MCF7 cells; MCF7-SC, dose 2.0 mg/kg) was 0%, the inhibition at 0.02 µg/mL ([2]; Homo sapiens, MCF7, at 20 ng/mL, positive control, read-out: inhibition against MCF-7) was 71% and the “Inhibition (%)” value (Col2 cells; Col2-SC, dose 2.0 mg/kg) was 6.9%. The inhibition at 0.02 µg/mL ([4]; Homo sapiens, Col2, at 20 ng/mL, positive control, read-out: inhibition against Col2) was 76%, the inhibition at 0.02 µg/mL ([5]; Homo sapiens, Lu1, at 20 ng/mL, positive control, read-out: inhibition against Lu-1) was 56% and the “Inhibition (%)” value (Lu1 cells; Lu1-IP, dose 2.0 mg/kg) was 39.9%. For the same compound, the “Inhibition (%)” value (Lu1 cells; Lu1-SC, dose 2.0 mg/kg) was 0%.

In the case of `COc1cc2cc(c1Cl)N1CCC(C)(O)C(=O)N[C@@H](C)C(=O)O[C@@H](CC1=O)[C@]1(C)OC1[C@H](C)[C@@H]1C[C@@](O)(NC(=O)O1)[C@H](OC)/C=C/C=C(\C)C2OC` (some centres unmarked) [treflorine], the “antitumor activity against P388 lymphocytic leukemia” value [6] is given as “retain antitumor activity” and the “antitumor activity against KB cells” value (KB cells) is given as “retain antitumor activity”.

For `COc1cc2cc(c1Cl)N1CC(O)C(C)(O)C(=O)N[C@@H](C)C(=O)O[C@@H](CC1=O)[C@]1(C)OC1[C@H](C)[C@@H]1C[C@@](O)(NC(=O)O1)[C@H](OC)/C=C/C=C(\C)C2OC` (some centres unmarked) [trenudine], the “antitumor activity against P388 lymphocytic leukemia” value [6] is given as “retain antitumor activity” and the “antitumor activity against KB cells” value (KB cells) is given as “retain antitumor activity”.

With `COc1cc2cc(c1Cl)N1CC(C)C(C)(O)C(=O)N[C@@H](C)C(=O)O[C@@H](CC1=O)[C@]1(C)OC1[C@H](C)[C@@H]1C[C@@](O)(NC(=O)O1)[C@H](OC)/C=C/C=C(\C)C2` (some centres unmarked) [Compound 1, Loeseneriellin B] the IC50 ([1]; Homo sapiens, LNCaP) was 0.25 nM, the “excised tumor weights, % inhibition versus control” value (HCT116 cancer cells; high dose 40 μg/kg i.v. daily for 3 weeks (FIG. 2)) was 41.7% and the “average tumor size (L×W×W) suppressed in comparison with the control group” value (HCT116 cancer cells; high dose 40 μg/kg i.v. daily) was 41.7%. For the same compound, the “excised tumor weights, % inhibition versus control” value (HCT116 cancer cells; low dose 20 μg/kg i.v. daily for 3 weeks (FIG. 2)) was 38.3%, the “average tumor size (L×W×W) suppressed in comparison with the control group” value (HCT116 cancer cells; low dose 20 μg/kg i.v. daily) was 38.3% and the “body weights of mice” value [7] was “No apparent weight loss; also recorded: insignificant change in body weights”. For the same compound, the “Inhibition (%)” value (MCF7 cells; MCF7-IP, dose 0.05 mg/kg, listed as Loeseneriellin B) was 57.2%, the “Inhibition (%)” value (MCF7 cells; MCF7-IP, dose 0.05 mg/kg, listed as loeseneriellin B) was “more than 65%” and the “Inhibition (%)” value (MCF7 cells; MCF7-IP, dose 0.1 mg/kg) was 75.5%. For the same compound, the “Inhibition (%)” value (MCF7 cells; MCF7-IP, dose 0.2 mg/kg) was 84.6%, the “Inhibition (%)” value (MCF7 cells; MCF7-SC, dose 0.05 mg/kg) was 0% and the “Inhibition (%)” value (MCF7 cells; MCF7-SC, dose 0.1 mg/kg) was 0%. For the same compound, the “Inhibition (%)” value (MCF7 cells; MCF7-SC, dose 0.2 mg/kg) was 40.1%, the IC50 ([2]; Homo sapiens, MCF7, read-out: IC50 MCF-7) was 0.68 nM and the “Inhibition (%)” value (Col2 cells; Col2-IP, dose 0.05 mg/kg, listed as Loeseneriellin B) was 65.5%. The “Inhibition (%)” value (Col2 cells; Col2-IP, dose 0.05 mg/kg, listed as loeseneriellin B) was “more than 65%”, the “Inhibition (%)” value (Col2 cells; Col2-IP, dose 0.1 mg/kg) was 70.5% and the “Inhibition (%)” value (Col2 cells; Col2-SC, dose 0.05 mg/kg) was 0%. The “Inhibition (%)” value (Col2 cells; Col2-SC, dose 0.1 mg/kg) was 1.4%, the “bioactivity compared with maytansine (3)” value [8] was “comparable bioactivity to that of maytansine” and the IC50 ([3]; Homo sapiens, KB) was 0.15 nM. The IC50 ([4]; Homo sapiens, Col2, read-out: IC50 Col2) was 0.2 nM, the IC50 ([5]; Homo sapiens, Lu1, read-out: IC50 Lu1) was 0.71 nM and the “Inhibition (%)” value (Lu1 cells; Lu1-IP, dose 0.05 mg/kg) was 34.9%. For the same compound, the “Inhibition (%)” value (Lu1 cells; Lu1-IP, dose 0.1 mg/kg) was 20.9%, the “Inhibition (%)” value (Lu1 cells; Lu1-SC, dose 0.05 mg/kg) was 0% and the “Inhibition (%)” value (Lu1 cells; Lu1-SC, dose 0.1 mg/kg) was 0%.

In the case of `CC[C@]1(O)C[C@@H]2CN(CCc3c([nH]c4ccccc34)[C@@](C(=O)OC)(c3cc4c(cc3OC)N(C)[C@H]3[C@@](O)(C(=O)OC)[C@H](OC(C)=O)[C@]5(CC)C=CCN6CC[C@]43[C@@H]65)C2)C1` [vinblastine, Vinblastine], the inhibition at 0.04 µg/mL ([1]; Homo sapiens, LNCaP, at 40 ng/mL, positive control, read-out: inhibition against LNCaP) is reported as 89%, the inhibition at 0.04 µg/mL ([2]; Homo sapiens, MCF7, at 40 ng/mL, positive control, read-out: inhibition against MCF-7) is reported as 70% and the inhibition at 0.04 µg/mL ([4]; Homo sapiens, Col2, at 40 ng/mL, positive control, read-out: inhibition against Col2) is reported as 87%. It also gave an inhibition at 0.04 µg/mL ([5]; Homo sapiens, Lu1, at 40 ng/mL, positive control, read-out: inhibition against Lu-1) of 54%.

With `COc1cc2cc(c1Cl)N(C)C(=O)CC(OC(=O)C(C)N(C)C(=O)CC(C)C)C1(C)OC1C(C)C1CC(O)(NC(=O)O1)C(OC)/C=C/C=C(\C)C2` (centres unmarked) [Compound 6, Maytanvaline] the IC50 [1, 10] was 0.16 nM, the IC50 [2, 11] was 0.27 nM and the IC50 [3, 10] was 0.11 nM. It also gave an IC50 [4, 12] of 0.15 nM and an IC50 [5, 13] of 0.69 nM.

In the case of `CCC(=O)N(C)[C@@H](C)C(=O)O[C@H]1CC(=O)N(C)c2cc(cc(OC)c2Cl)C/C(C)=C/C=C[C@@H](OC)[C@@]2(O)C[C@H](OC(=O)N2)[C@@H](C)[C@@H]2O[C@@]12C` [Compound 4, Maytanprine], the IC50 [1, 10] is reported as 0.16 nM, the IC50 [2, 11] is reported as 0.17 nM and the IC50 [3, 10] is reported as 0.061 nM. For the same compound, the IC50 [4, 12] was 0.16 nM and the IC50 [5, 13] was 0.35 nM.

In the case of `COc1cc2cc(c1Cl)N(C)C(=O)C[C@H](OC(=O)[C@H](C)N(C)C(C)=O)[C@]1(C)O[C@H]1[C@H](C)[C@@H]1C[C@@](O)(NC(=O)O1)[C@H](OC)/C=C/C=C(\C)C2` [Compound 3, Maytansine], the IC50 [1, 10] is given as 0.32 nM, the IC50 [2, 11] is given as 0.69 nM and the “systemic toxicity in human clinical trials” value [9] is given as “unacceptable systemic toxicity”. The IC50 [3, 10] was 0.17 nM, the IC50 [4, 12] was 0.19 nM and the IC50 [5, 13] was 0.77 nM.
